In patent US20170008928A1, “NOVEL PEPTIDES AND PEPTIDE DERIVATIVES AND USES THEREOF” (Novo Nordisk A/S, priority 2015, published 2017):
Where two headings read alike, the source gives them in different places. Non-standard residues stand in square brackets, D forms with d. Residues, ends and D or L forms follow the SMILES beside them. Phe(4-CH2SO3H) = N[C@@H](Cc1ccc(CS(=O)(=O)O)cc1)C(=O)O; sY = N[C@@H](Cc1ccc(OS(=O)(=O)O)cc1)C(=O)O; NMeF = CN[C@@H](Cc1ccccc1)C(=O)O; dNMeD = CN[C@H](CC(=O)O)C(=O)O; Nle = CCCC[C@H](N)C(=O)O

How the values were obtained:
[1] = molecular target: T1, human cholecystokinin-2 receptor (CCK-2R) (Homo sapiens, UniProt P32239); assay: In vitro receptor binding to CCK-2R, SPA displacement of [125I]-CCK-8s from plasma membranes
T1 construct: host or cells: 1321-N1 cells (plasma membranes prepared by Evotec AG Hamburg)
T1 sequence (P32239 1-447): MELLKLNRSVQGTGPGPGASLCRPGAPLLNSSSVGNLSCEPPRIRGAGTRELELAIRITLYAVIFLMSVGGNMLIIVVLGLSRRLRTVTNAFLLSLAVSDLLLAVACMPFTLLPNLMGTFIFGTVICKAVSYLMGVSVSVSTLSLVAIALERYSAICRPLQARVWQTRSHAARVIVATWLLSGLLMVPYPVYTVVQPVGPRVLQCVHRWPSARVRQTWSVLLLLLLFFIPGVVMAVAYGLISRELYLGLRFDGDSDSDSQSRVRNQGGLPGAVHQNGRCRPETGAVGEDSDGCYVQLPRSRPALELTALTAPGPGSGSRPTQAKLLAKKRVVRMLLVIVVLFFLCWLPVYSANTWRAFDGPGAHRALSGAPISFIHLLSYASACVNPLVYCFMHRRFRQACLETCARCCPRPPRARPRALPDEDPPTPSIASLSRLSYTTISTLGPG
Experimental: The in vitro binding affinity is a measure of the strength of attraction between a receptor and its ligand.
Displacement of radio ligand was measured as reduction in light emission from SPA beads.
The cells used in these assays were 1321-N1 cells stably expressing the CCK-1R or the CCK-2R (Perkin Elmer product numbers ES-530-A and ES-531-A, respectively see www.perkinelmer.com/Catalog/Product/ID/ES-530-A or -ES-531-A, respectively).
The cells were cultured in an incubator (95% RH (relative humidity), 5% (of standard atmospheric pressure) CO2, 37° C.) in cell culture medium (DMEM (Lonza catalogue BE-12-604F/U1), with 10% (v/v) Foetal Calf Serum (FCS, Gibco catalogue 16140-071), 1% (w/w) Sodium pyruvate (Gibco catalogue 11360-039), 500 μg/ml Geneticin® (G418) (Gibco catalogue 10131-027), 25 μg/ml Zeocin™ (Invitrogen catalogue R250-05), 1% (w/w) Pen/Strep (Gibco catalogue 15140-122)).
Plasma membranes were prepared by Evotec AG Hamburg by use of the ParrBomb (#4635, Parr Instrument Company). Cells were lysed with a lysis buffer (50 mM Tris, 2.5 mM EDTA, pH7) with added protease inhibitors (Complete Proteaseinhibitors EDTA-free (#05056489001, Roche), 1 tablet per 50 mL lysis buffer). The membrane fraction was separated by centrifugation. First, the cell lysate was centrifuged at 1000×g for 10 minutes at 4° C. The pellet was discarded and the supernatant was then centrifuged at 100.000×g for 30 minutes at 4° C. The supernatant was discarded and the pellet was re-suspended in 1 ml/5×10^8 cells ice cold membrane buffer (50 mM Tris, 320 mM Sucrose and Complete Proteaseinhibitors EDTA-free (#05056489001, Roche); pH7.4) and homogenised with dounce homogeniser. The protein concentration was determined using the Pierce™ BCA Protein Assay Kit according to kit manual, and the membrane preparation was adjust to the desired protein concentration with membrane buffer and aliquoted into pre-cooled tubes, snap-frozen in liquid nitrogen, and stored at −80° C.
CCK receptor binding assays were performed in 96-well Optiplates (Cat #6005290, PerkinElmer, Waltham, Mass., USA) in a total volume of 200 μl per well. CCK derivatives in 80% DMSO stock solutions of 800 μM were serially diluted […] in assay buffer (50 mM Tris/HCl, 4.5 mM MgCl2, […], 0.02% Tween 20, 0.25% ovalbumin, 0.1% pluronic F-68, pH 7.4) to final assay concentrations ranging from 10^−5 M (ten μM) to 10^−12 M (one pM).
Fifty μl of reference or test compounds were added to the Optiplates (using technical duplicates, i.e. two wells of each sample, one data point being the average of two wells), followed by addition of 150 μl of the mixture of SPA bead, radio ligand, and plasma membrane. The plates were sealed and incubated in the dark at +22° C. for 2 hours on a IKA MTS plate shaker (IKA-Werke D-79219 Staufen) set at 300 rpm and thereafter centrifuged at 1500 rpm for 10 minutes in a Heraeus Multifuge 3s centrifuge. SPA bead light emission was measured in a TopCount NXT (PerkinElmer) for 2 min/well after a delay of 60 min.
As a measure of compound affinity, calculations were performed in order to determine the half maximal inhibitory concentration (the IC50 value).
The data from the TopCounter were given as counts per minute (CPM). The CPM was plotted as a function of the concentration of compound. Dose-response curves were obtained, and IC50 values were calculated, by a nonlinear three-parameter logistic equation (log(agonist) vs response) with hillslope=−1, and shared top and bottom using the software programme GraphPad Prism v 6.0 (Graph Pad software, La Jolla, Calif., USA). The highest dose tested was 10^−5 M (1×10^7 pM).
The preference of a specific compound for the CCK-1 receptor, or the CCK-1R selectivity, may be defined as IC50 (CCK-2R)/IC50 (CCK-1R).
A minimum of three biological replicates was measured for each test compound on separate assay plates.

[2] = molecular target: T1, human cholecystokinin-2 receptor (CCK-2R); assay: In vitro potency on CCK-2R, whole cell functional assay (IP1 accumulation, IP-One HTRF); format: cell-based
[3] = displacement of [125I]-CCK-8s, plasma membranes of 1321-N1 cells expressing CCK-2R, highest dose tested 1×10^7 pM, read-out: IC50 (CCK-2R)
[4] = 1321-N1 cells stably expressing CCK-2R, IP1 accumulation, highest dose tested 1×10^6 pM, read-out: EC50 (CCK-2R)

SMILES: CC(C)C[C@H](NC(=O)[C@H](Cc1ccc(OS(=O)(=O)O)cc1)NC(=O)[C@H](CCC(=O)O)NC(=O)COCCOCCNC(=O)COCCOCCNC(=O)CC[C@H](NC(=O)CCCCCCCCCCCCCCCCC(=O)O)C(=O)O)C(=O)NCC(=O)N[C@@H](Cc1c[nH]c2ccccc12)C(=O)N[C@@H](CCC(N)=O)C(=O)N(C)[C@H](CC(=O)O)C(=O)N[C@@H](Cc1ccccc1)C(N)=O [Example 41, 2-[2-[2-[[2-[2-[2-[[(4S)-4-Carboxy-4-(17-carboxyheptadecanoylamino)butanoyl]amino]ethoxy]ethoxy]acetyl]amino]ethoxy]ethoxy]acetyl-Glu-sTyr-Leu-Gly-Trp-Gln-DMeAsp-Phe-amide]
- IC50 [1, 3]: > 10 µM
- EC50 [2, 4]: > 1 µM

SMILES: CCCC[C@H](NC(=O)[C@H](Cc1c[nH]c2ccccc12)NC(=O)CNC(=O)[C@H](CC(C)C)NC(=O)[C@H](Cc1ccc(CS(=O)(=O)O)cc1)NC(=O)[C@@H](N)CC(=O)O)C(=O)N(C)[C@H](CC(=O)O)C(=O)N(C)[C@@H](Cc1ccccc1)C(N)=O [Example 57, Asp-Phe(4-sulfomethyl)-Leu-Gly-Trp-Nle-DMeAsp-MePhe-amide] (H-D[Phe(4-CH2SO3H)]LGW[Nle][dNMeD][NMeF]-NH2)
- IC50 [1, 3]: > 10 µM
- EC50 [2, 4]: > 1 µM

SMILES: CC[C@H](C)[C@H](NC(=O)[C@H](Cc1c[nH]c2ccccc12)NC(=O)CNC(=O)[C@H](CC(C)C)NC(=O)[C@H](Cc1ccc(OS(=O)(=O)O)cc1)NC(=O)[C@@H](N)CC(=O)O)C(=O)N(C)[C@H](CC(=O)O)C(=O)N(C)[C@@H](Cc1ccccc1)C(N)=O [Example 61, Asp-sTyr-Leu-Gly-Trp-Ile-DMeAsp-MePhe-amide] (H-D[sY]LGWI[dNMeD][NMeF]-NH2)
- IC50 [1]: 6.1 µM
- EC50 [2]: > 1 µM

SMILES: CC(C)C[C@H](NC(=O)[C@H](Cc1ccc(OS(=O)(=O)O)cc1)NC(=O)[C@@H](N)CC(=O)O)C(=O)NCC(=O)N[C@@H](Cc1c[nH]c2ccccc12)C(=O)N1CCC[C@H]1C(=O)N(C)[C@H](CC(=O)O)C(=O)N(C)[C@@H](Cc1ccccc1)C(N)=O [Example 66, Asp-sTyr-Leu-Gly-Trp-Pro-DMeAsp-MePhe-amide] (H-D[sY]LGWP[dNMeD][NMeF]-NH2)
- IC50 [1]: > 10 µM
- EC50 [2]: > 1 µM

SMILES: CCCC[C@H](NC(=O)[C@H](Cc1c[nH]c2ccccc12)NC(=O)CNC(=O)[C@H](CCCCN)NC(=O)[C@H](Cc1ccc(OS(=O)(=O)O)cc1)NC(=O)[C@@H](N)CC(=O)O)C(=O)N(C)[C@H](CC(=O)O)C(=O)N(C)[C@@H](Cc1ccccc1)C(N)=O [Example 67, Asp-sTyr-Lys-Gly-Trp-Nle-DMeAsp-MePhe-amide] (H-D[sY]KGW[Nle][dNMeD][NMeF]-NH2)
- IC50 [1, 3]: > 10 µM
- EC50 [2, 4]: > 1 µM

SMILES: CCCC[C@H](NC(=O)[C@@H](N)Cc1ccc(OS(=O)(=O)O)cc1)C(=O)NCC(=O)N[C@@H](Cc1c[nH]c2ccccc12)C(=O)N[C@@H](CCCC)C(=O)N(C)[C@H](CC(=O)O)C(=O)N(C)[C@@H](Cc1ccccc1)C(N)=O [Example 72, sTyr-Nle-Gly-Trp-Nle-DMeAsp-MePhe-amide] (H-[sY][Nle]GW[Nle][dNMeD][NMeF]-NH2; N-terminus assumed)
- IC50 [1, 3]: > 10 µM
- EC50 [2, 4]: > 1 µM

SMILES: CCCC[C@H](NC(=O)[C@H](Cc1c[nH]c2ccccc12)NC(=O)CNC(=O)[C@@H](NC(=O)[C@H](Cc1ccc(OS(=O)(=O)O)cc1)NC(=O)[C@@H](N)CC(=O)O)[C@@H](C)CC)C(=O)N(C)[C@H](CC(=O)O)C(=O)N(C)[C@@H](Cc1ccccc1)C(N)=O [Example 81, Asp-sTyr-Ile-Gly-Trp-Nle-DMeAsp-MePhe-amide] (H-D[sY]IGW[Nle][dNMeD][NMeF]-NH2)
- IC50 [1, 3]: > 10 µM
- EC50 [2, 4]: > 1 µM

SMILES: CCCC[C@H](NC(=O)[C@H](Cc1c[nH]c2ccccc12)NC(=O)CNC(=O)[C@H](Cc1c[nH]cn1)NC(=O)[C@H](Cc1ccc(OS(=O)(=O)O)cc1)NC(=O)[C@@H](N)CC(=O)O)C(=O)N(C)[C@H](CC(=O)O)C(=O)N(C)[C@@H](Cc1ccccc1)C(N)=O [Example 82, Asp-sTyr-His-Gly-Trp-Nle-DMeAsp-MePhe-amide] (H-D[sY]HGW[Nle][dNMeD][NMeF]-NH2)
- IC50 [1, 3]: > 10 µM
- EC50 [2, 4]: > 1 µM

SMILES: CC(C)C[C@H](NC(=O)[C@H](Cc1ccc(OS(=O)(=O)O)cc1)NC(=O)[C@@H](N)CCC(=O)O)C(=O)NCC(=O)N[C@@H](Cc1c[nH]c2ccccc12)C(=O)N[C@@H](CCC(N)=O)C(=O)N(C)[C@H](CC(=O)O)C(=O)N[C@@H](Cc1ccccc1)C(N)=O [Example 85, Glu-sTyr-Leu-Gly-Trp-Gln-DMeAsp-Phe-amide]
- IC50 [1, 3]: > 10 µM
- EC50 [2, 4]: > 1 µM

SMILES: CC(C)C[C@H](NC(=O)[C@H](Cc1ccc(OS(=O)(=O)O)cc1)NC(=O)[C@@H](N)CCC(=O)O)C(=O)NCC(=O)N[C@@H](Cc1c[nH]c2ccccc12)C(=O)N[C@@H](CCC(N)=O)C(=O)N(C)[C@H](CC(=O)O)C(=O)N(C)[C@@H](Cc1ccccc1)C(N)=O [Example 86, Glu-sTyr-Leu-Gly-Trp-Gln-DMeAsp-MePhe-amide]
- IC50 [1, 3]: > 10 µM
- EC50 [2, 4]: > 1 µM

SMILES: CCCC[C@H](NC(=O)[C@H](Cc1c[nH]c2ccccc12)NC(=O)CNC(=O)[C@H](CC(C)C)NC(=O)[C@H](Cc1ccc(OS(=O)(=O)O)cc1)NC(=O)[C@H](N)CCC(=O)O)C(=O)N(C)[C@H](CC(=O)O)C(=O)N(C)[C@@H](Cc1ccccc1)C(N)=O [Example 87, DGlu-sTyr-Leu-Gly-Trp-Nle-DMeAsp-MePhe-amide] (H-[dE][sY]LGW[Nle][dNMeD][NMeF]-NH2)
- IC50 [1, 3]: > 10 µM
- EC50 [2, 4]: > 1 µM
